Experimental findings from patent publication US20050019357A1, “(2S,3R,4S)-4-hydroxyisoleucine-containing cosmetic compositions and methods of application” (Caster, priority 2003, published 2005) are described below.

Each structure is given as a SMILES string.

Test [1] relates to Cellular Retinoic Acid Binding Protein (CRAB-P-2). The experiment in a line: cDNA-macroarrays confirmed by quantitative RT-PCR on messenger RNAs of epidermal cells: CRAB-P-2 expression. The format is cell-based.
Test [2] concerns Bullous Pemphigoid Antigen 1 (BPAG-1). The experiment in a line: cDNA-macroarrays confirmed by quantitative RT-PCR on messenger RNAs of epidermal cells: BPAG-1 expression. The format is cell-based.
A further test deals with JL1-R1 receptor. The experiment in a line: cDNA-macroarrays confirmed by quantitative RT-PCR on messenger RNAs of epidermal cells: JL1-R1 receptor expression. The format is cell-based.
The next test deals with TNS & CRAB-2 receptors. The experiment in a line: cDNA-macroarrays confirmed by quantitative RT-PCR on messenger RNAs of epidermal cells: TNS & CRAB-2 receptor expression. It is filed as cell-based.
The subject of test [3] is men with alopecia (proportion of hair in the telogen phase greater than 15%). In words: Anti-hair loss study by videotrichogram on volunteers with alopecia. As to conditions: used as active ingredient in an anti-hair loss composition already containing Lentinus edodes extract, procyanidolic oligomers and Cananga odorata essential oil. It is filed as in vivo, human. The text has this: The anti-ageing effect on the epidermis was confirmed in vivo in a study relating to the anti-hair loss properties of (2S,3R,4S)-4-hydroxyisoleucine carried out on volunteer subjects affected by alopecia, having a proportion of hair in the telogen phase greater than […] 15%. […] This anti-hair loss composition is described in application FR 2 776 184 of which the applicant is proprietor. It contains an aqueous extract of the mushroom Lentinus edodes rich in 1,3-β-D-1,6-β-D-glucan, procyanidolic oligomers extracted from grapeseed cuticle, and essential oil extracted from the flowers of Cananga odorata. […]
This study was carried out on a sample of 25 volunteers for each composition tested. The only people included in the study were men from 20 to 50 years old (average age of each group 37 years) with alopecia, that is to say having a proportion of hair in the telogen phase, determined by videotrichogram, greater than 15%.
The apparatus used is a videomicroscope equipped with a ×25 lens, which is mobile and optical fibre-based, linked to a computer system for image acquisition. The lens is placed directly over the zone to be studied, the image is digitized, recorded and analysed with the aid of a specific software (COUNTHAIR®) developed by the company DERMSCAN which makes it possible to count the hair strands and to measure their length. […]

Regarding `C[C@@H]([C@H](C)O)[C@H](N)C(=O)O` [(2S,3R,4S)-4-hydroxyisoleucine], the “expression of Cellular Retinoic Acid Binding Protein (CRAB-P-2)” value in test [1] is recorded as “significant underexpression”. The “expression of Bullous Pemphigoid Antigen 1 (BPAG-1)” value in test [2] was “significant overexpression”. Also, the “expression of the JL1-R1 receptor” value in the test on JL1-R1 receptor was “significant overexpression”. Also, in the test on TNS & CRAB-2 receptors, the “expression of the TNS & CRAB-2 receptors” value is “decrease in the expression”. Further, the anti-hair loss properties result in test [3] was “particularly effective”.
